In the supplement of paper PMC10307832:

Columns and labels:
Assay in all cases: relative viability (nuclei count vs DMSO), 5 days (fraction); higher = more cells survive
NCI-H1793 = details: first compound 8 µM
Outline: (§1)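 Lung cancer cell lines were pin-tool dosed in 1536-well plates on the day after seeding, with either a lone drug or a fixed anchor-drug dose plus five library-drug doses (not always all listed) in √10 steps. Nuclei were counted on 4× images after 5 days. Relative viability is the ratio of treated-well to vehicle-well nuclei counts, with each value a median of duplicate plates.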

A-427 = tested on: A-427
Outline: as §1

NCI-H1915 = tested on: NCI-H1915
Outline: as §1

UMC-11 = tested on: UMC-11
Outline: as §1

NCI-H441 = tested on: NCI-H441
Outline: as §1

NCI-H3122 = tested on: NCI-H3122
Outline: as §1

HARA = tested on: HARA
Outline: as §1

HCC-366 = tested on: HCC-366
Outline: as §1

NCI-H2405 = tested on: NCI-H2405
Outline: as §1

NCI-H1975 = tested on: NCI-H1975
Outline: as §1

NCI-H650 = tested on: NCI-H650
Outline: as §1

NCI-H2023 = tested on: NCI-H2023
Outline: as §1

**Q.** Which relative viability (NCI-H1793) does the source give for `O=c1[nH]c2ccccc2n1C1CCN(CCCC(c2ccc(F)cc2)c2ccc(F)cc2)CC1` [Pimozide] + C[C@]1(O)C[C@@H](c2nc(-c3ccc4ccc(-c5ccccc5)nc4c3)c3c(N)nccn32)C1 [Linsitinib] (partner 1 µM) here?
**A.** 0.831

**Q.** And the relative viability (A-427; first compound 0.08 µM)?
**A.** 0.985

**Q.** What about the relative viability (A-427; first compound 0.253 µM) of the same compound?
**A.** 1.14

**Q.** What about the relative viability (A-427; first compound 0.8 µM) of the same compound?
**A.** 1.13

**Q.** And the relative viability (A-427; first compound 2.53 µM)?
**A.** 1.15

**Q.** And the relative viability (A-427; first compound 8 µM)?
**A.** 1.08

**Q.** And the relative viability (NCI-H1915; first compound 0.08 µM)?
**A.** 1.09

**Q.** And the relative viability (NCI-H1915; first compound 0.253 µM)?
**A.** 1.06

**Q.** What about the relative viability (NCI-H1915; first compound 0.8 µM) of the same compound?
**A.** 0.921

**Q.** And the relative viability (NCI-H1915; first compound 2.53 µM)?
**A.** 1.09

**Q.** And the relative viability (NCI-H1915; first compound 8 µM)?
**A.** 1.1

**Q.** And the relative viability (UMC-11; first compound 0.08 µM)?
**A.** 1.02

**Q.** What about the relative viability (UMC-11; first compound 0.253 µM) of the same compound?
**A.** 0.977

**Q.** And the relative viability (UMC-11; first compound 0.8 µM)?
**A.** 1.05

**Q.** And the relative viability (UMC-11; first compound 2.53 µM)?
**A.** 1.07

**Q.** And the relative viability (UMC-11; first compound 8 µM)?
**A.** 1.09

**Q.** What about the relative viability (NCI-H441; first compound 0.08 µM) of the same compound?
**A.** 0.496

**Q.** What about the relative viability (NCI-H441; first compound 0.253 µM) of the same compound?
**A.** 0.53

**Q.** And the relative viability (NCI-H441; first compound 0.8 µM)?
**A.** 0.752

**Q.** And the relative viability (NCI-H441; first compound 2.53 µM)?
**A.** 0.483

**Q.** And the relative viability (NCI-H441; first compound 8 µM)?
**A.** 0.389

**Q.** And the relative viability (NCI-H3122; first compound 0.08 µM)?
**A.** 1.01

**Q.** What about the relative viability (NCI-H3122; first compound 0.253 µM) of the same compound?
**A.** 1.06

**Q.** What about the relative viability (NCI-H3122; first compound 0.8 µM) of the same compound?
**A.** 1

**Q.** What about the relative viability (NCI-H3122; first compound 2.53 µM) of the same compound?
**A.** 1.05

**Q.** What about the relative viability (NCI-H3122; first compound 8 µM) of the same compound?
**A.** 1.06

**Q.** And the relative viability (HARA; first compound 0.08 µM)?
**A.** 0.944

**Q.** What about the relative viability (HARA; first compound 0.253 µM) of the same compound?
**A.** 0.981

**Q.** And the relative viability (HARA; first compound 0.8 µM)?
**A.** 0.823

**Q.** What about the relative viability (HARA; first compound 2.53 µM) of the same compound?
**A.** 0.92

**Q.** And the relative viability (HARA; first compound 8 µM)?
**A.** 0.748

**Q.** And the relative viability (HCC-366; first compound 0.08 µM)?
**A.** 0.747

**Q.** And the relative viability (HCC-366; first compound 0.253 µM)?
**A.** 0.67

**Q.** And the relative viability (HCC-366; first compound 0.8 µM)?
**A.** 0.7

**Q.** And the relative viability (HCC-366; first compound 2.53 µM)?
**A.** 0.754

**Q.** What about the relative viability (HCC-366; first compound 8 µM) of the same compound?
**A.** 0.677

**Q.** And the relative viability (NCI-H2405; first compound 0.08 µM)?
**A.** 0.888

**Q.** What about the relative viability (NCI-H2405; first compound 0.253 µM) of the same compound?
**A.** 0.771

**Q.** What about the relative viability (NCI-H2405; first compound 0.8 µM) of the same compound?
**A.** 0.876

**Q.** And the relative viability (NCI-H2405; first compound 2.53 µM)?
**A.** 0.814

**Q.** What about the relative viability (NCI-H2405; first compound 8 µM) of the same compound?
**A.** 0.7

**Q.** And the relative viability (NCI-H1975; first compound 0.08 µM)?
**A.** 0.95

**Q.** What about the relative viability (NCI-H1975; first compound 0.253 µM) of the same compound?
**A.** 1.04

**Q.** And the relative viability (NCI-H1975; first compound 0.8 µM)?
**A.** 0.964

**Q.** What about the relative viability (NCI-H1975; first compound 2.53 µM) of the same compound?
**A.** 0.926

**Q.** And the relative viability (NCI-H1975; first compound 8 µM)?
**A.** 0.741

**Q.** What about the relative viability (NCI-H650; first compound 0.08 µM) of the same compound?
**A.** 0.842

**Q.** And the relative viability (NCI-H650; first compound 0.253 µM)?
**A.** 0.792

**Q.** And the relative viability (NCI-H650; first compound 0.8 µM)?
**A.** 0.911

**Q.** What about the relative viability (NCI-H650; first compound 2.53 µM) of the same compound?
**A.** 0.791

**Q.** And the relative viability (NCI-H650; first compound 8 µM)?
**A.** 0.847

**Q.** What about the relative viability (NCI-H2023; first compound 0.08 µM) of the same compound?
**A.** 0.613

**Q.** What about the relative viability (NCI-H2023; first compound 0.253 µM) of the same compound?
**A.** 0.654

**Q.** What about the relative viability (NCI-H2023; first compound 0.8 µM) of the same compound?
**A.** 0.61

**Q.** What about the relative viability (NCI-H2023; first compound 2.53 µM) of the same compound?
**A.** 0.667

**Q.** And the relative viability (NCI-H2023; first compound 8 µM)?
**A.** 0.443
